# Results as given in US9006454B2, “Dihydroorotate dehydrogenase inhibitors” (Merck Serono S.A., priority 2009, dated 2015).
# Tests used:
# [1] = tested on: spleen colony-forming units (CFU); conditions: cited from earlier work
# [2] = tested on: experimental allergic encephalomyelitis (EAE); conditions: oral, from 10 days after inoculation; Teriflunomide 3 and 10 mg/kg, dexamethasone 1 mg/kg; cited from earlier work
# DHODH [3] = target: T1, DHODH (Homo sapiens (Human), UniProt Q02127); conditions: cited from earlier work
# Target sequence in this assay (Q02127 whole entry, species assumed): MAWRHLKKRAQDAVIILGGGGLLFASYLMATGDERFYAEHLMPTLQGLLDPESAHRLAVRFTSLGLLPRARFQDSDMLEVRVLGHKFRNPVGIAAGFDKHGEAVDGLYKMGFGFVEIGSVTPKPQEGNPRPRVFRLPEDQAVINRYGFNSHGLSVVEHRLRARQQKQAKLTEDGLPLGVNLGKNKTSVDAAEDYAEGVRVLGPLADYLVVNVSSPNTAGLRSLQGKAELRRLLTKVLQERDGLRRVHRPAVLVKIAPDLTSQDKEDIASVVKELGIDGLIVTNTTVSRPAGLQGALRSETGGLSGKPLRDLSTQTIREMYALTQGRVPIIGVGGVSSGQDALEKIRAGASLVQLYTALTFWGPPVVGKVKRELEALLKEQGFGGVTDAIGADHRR
# [4] = tested on: multiple sclerosis with relapses; conditions: once-daily oral 7 and 14 mg; cited from earlier work
# Jurkat cells = test: Measurement of cell proliferation (Jurkat cell), XTT assay; format: cell-based; conditions: for inhibition at 1 µM: compound at 1 uM, read-out: % inh Jurkat_cells @ 1 uM (%); for EC50: XTT cell viability
# In short: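 Jurkat T cells, 100,000 per well in RPMI with 10% FBS, exposed 72 h at 37 °C to serial compound dilutions (typically from 10 μM, half-log steps, triplicate) at 0.25–0.5% DMSO. Viability by XTT/PMS, A465 after 2 h, media background subtracted, untreated cells as 100%; EC50 from curve fit.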
# DHODH [5] = target: T1, DHODH; test: DHODH activity assay (coupled enzyme assay, DCIP reduction, absorbance at 610 nm); format: biochemical; conditions: for inhibition at 10 µM: read-out: inh @ 10 uM hDHODH (%)
# Target sequence in this assay (Q02127 whole entry): as the sequence (Q02127 whole entry, species assumed) above
# colon 38 tumor = conditions: murine model colon 38 tumor; cited from earlier work
# L1210 murine leukemia = conditions: cited from earlier work
Compound,"inhibition at 1 µM (Jurkat cells; Homo sapiens, Jurkat)",IC50 (DHODH [5]),inhibition at 10 µM (DHODH [5]; compound at 10 uM),other results
C/C(O)=C(\C#N)C(=O)Nc1ccc(C(F)(F)F)cc1 [Teriflunomide],,,,"CFU cycling [1]: inhibited CFU cycling; onset of disease and symptom severity in EAE [2]: significant delay in the onset of disease and in symptom severity; fold greater inhibitor of DHODH than of protein tyrosine kinase (DHODH [3]): 100-1,000 fold; number of unique active lesions compared to placebo [4]: reduced number of unique active lesions"
C[C@@H]1C[C@H]2[C@@H]3CCC4=CC(=O)C=C[C@]4(C)[C@@]3(F)[C@@H](O)C[C@]2(C)[C@@]1(O)C(=O)CO [dexamethasone],,,,onset of disease and symptom severity in EAE [2]: significant delay in the onset of disease and in symptom severity
Cc1cc(C(=O)O)c2nc(-c3ccc(-c4ccc(OCc5ccncc5)cc4)cc3)[nH]c2c1 [I114],49%,1730 nM,65%,
O=C(O)c1cccc2[nH]c(-c3ccc(-c4ccccc4OCc4ccccc4)cc3)nc12 [I169],22%,,72%,
O=C(O)c1cccc2[nH]c(-c3ccc(-c4cccc(OC(F)(F)F)c4)cc3)nc12 [I18],43.1%,1260 nM,89%,
COc1cccc(-c2ccc(-c3nc4c(C(=O)O)cccc4[nH]3)c(F)c2)c1 [I3],,616 nM,,EC50 (Jurkat cells; 72 hrs): 753 nM; inh @ 10 uM hDHODH (%) (DHODH [5]; compound at 10 uM): 92.6%
Cc1cc(C(=O)NC2CCCC2)c2[nH]c(-c3c(F)c(F)c(-c4ccccc4)c(F)c3F)nc2c1 [I158],6.5%,,48.5%,
Cc1cc(C(=O)O)c2[nH]c(-c3ccc(-c4ccc(OCCO)cc4)cc3)nc2c1 [I99],27.7%,3100 nM,71%,
Cc1cc(C(=O)O)c2[nH]c(-c3cc4ccccc4[nH]3)nc2c1 [I40],3.7%,,23.3%,
Cc1ccc(C)n1-c1ccc(-c2nc3cccc(C(=O)O)c3[nH]2)cc1 [I185],21.5%,,59.4%,
Cc1cc(C(=O)O)c2nc(-c3ccc(-c4ccccc4)s3)[nH]c2c1 [I191],17.6%,,40.7%,
O=C(O)c1cccc2[nH]c(-c3ccc(-c4ccccc4)nc3)nc12 [I50],21%,,64.7%,
O=C(O)c1cc(F)cc2nc(-c3ccc(-c4ccc(F)cc4F)cc3F)[nH]c12 [I34],41.8%,,82%,
O=C(O)c1cccc2[nH]c(-c3cccc(Oc4ccccc4)c3)nc12 [I9],20%,7200 nM,64%,
Cc1cc(C(=O)O)c2[nH]c(-c3c(F)c(F)c(-c4ccccc4OCc4ccccc4)c(F)c3F)nc2c1 [I100],96.2%,60 nM,104%,
O=C(O)c1cccc2[nH]c(-c3ccc(-c4ccc(OCc5ccncc5)cc4)cc3)nc12 [I183],23.5%,,63.9%,
O=C(O)c1cccc2nc(-c3c(F)c(F)c(-c4cccc(OCc5ccccc5)c4)c(F)c3F)[nH]c12 [I107],99%,26 nM,108%,
O=C(O)c1cccc2nc(-c3cccc4ccccc34)[nH]c12 [I39],12.3%,,19.9%,
O=C(O)c1cccc2[nH]c(-c3ccc(-c4ccc(OCc5cccnc5)cc4)cc3)nc12 [I184],25.4%,,53.3%,
O=C(O)c1cccc2[nH]c(-c3ccc(S(=O)(=O)c4ccccc4)cc3)nc12 [I54],8%,,26.6%,
Cc1cc(C(=O)O)c2nc(-c3c(F)c(F)c(-c4ccc(NC(=O)C5CCCN5)cc4)c(F)c3F)[nH]c2c1 (stereo not drawn) [I85],93.4%,56 nM,104%,
Cc1cc(C(=O)O)c2nc(-c3c(F)c(F)c(-c4ccsc4)c(F)c3F)[nH]c2c1 [I139],94.9%,50 nM,105%,
O=C(O)c1cccc2nc(-c3ccc(-n4ccccc4=O)cc3)[nH]c12 [I63],1.4%,,5.3%,
O=C(O)c1cccc2[nH]c(-c3c(F)c(F)c(-c4cccnc4)c(F)c3F)nc12 [I136],68.4%,282 nM,89.5%,
"Cc1c(-c2ccc(-c3ccccc3F)cc2)nc2ccc(F)cc2c1C(=O)O [Brequinar, 6-Fluoro-2-(2′-fluoro[1,1′-biphenyl]-4-yl)-3-methyl-4-quinolinecarboxylic Acid]",,,,potentiation of 5-fluorouracil antitumor activity (colon 38 tumor): potentiates 5-fluorouracil antitumor activity; anticancer activity towards L1210 murine leukemia (L1210 murine leukemia): exhibits an anticancer activity
O=C(O)c1cccc2[nH]c(-c3ccc(-c4ccncc4)cc3)nc12 [I57],12.6%,,58%,
Cc1cc(C(=O)O)c2[nH]c(-c3ccc(-c4ccccc4)cc3F)nc2c1 [I28],75.4%,403 nM,96.3%,"EC50 (Jurkat cells; Homo sapiens, Jurkat, 72 h): 206 nM"
Cc1cc(-c2nnc(O)o2)c2nc(-c3ccc(-c4ccccc4)cc3)[nH]c2c1 [I165],29.7%,,46%,
